Measured values published in paper PMC5400251, “Effect of quinoline based 1,2,3-triazole and its structural analogues on growth and virulence attributes of Candida albicans” (PLoS ONE, 2017).
In brackets after ≈: the same amount, converted by molar mass. Like-named read-outs stand apart in the source and are kept apart here.

Key:
[1] = tested on: C. albicans D15.9 (FLC-resistant clinical isolate); assay: Broth dilution IC50 / MIC determination; format: cell-based; conditions: Candida albicans; for IC50: 24 h, read-out: Anti-Candida Activity (IC50± S.D.) C. albicans D15.9
Method: Broth dilution technique was employed to determine the IC50 values of all the synthesized 1,2,3 triazole derivatives (3a-c) against C. albicans ATCC 90028, C. glabrata ATCC 90030, C. tropicalis ATCC 750 and four clinical isolates of C. albicans namely D27, D31, D39 (FLC-sensitive) and D15.9 (FLC-resistant). The strains were maintained on yeast extract:peptone:dextrose ([…]) nutrient agar (2.5%) slants at 4°C. The test compounds were dissolved in DMSO with less than 4% concentration of it in the final test volume. Different concentrations (1000… 7.8 μg/mL) of test compounds in Sabouraud dextrose (SD) broth medium were dispensed into the wells, then inoculated with the test organism with approx. 2.5 × 10^3 cells/mL and incubated at 37°C for 24 h. After incubation period, the optical density was measured at 600 nm by using Thermo Scientific Multiskan Go plate reader. […] All the experiments were done in triplicate at separate times.

[2] = tested on: C. albicans D27 (FLC-susceptible); assay: Disk diffusion assay; format: cell-based; conditions: 48 h
Method: Disk diffusion assay was performed using C. albicans ATCC 90028 (standard), the two clinical isolates, C. albicans D27 (FLC-susceptible), and C. albicans D15.9 (FLC-resistant) for the lead inhibitors 3a and 3b. The C. albicans cells were inoculated into liquid SD medium and grown over night at 37°C. The cells were then centrifuged at 3000 rpm for 5 min, washed three times with PBS and then suspended in PBS again. Approximately, 10^5 cells/mL were inoculated into molten SD agar medium at 42°C and poured into 100-mm-diameter petriplates. Sterilized 4 mm disks of Whatman paper were placed on solid agar and 1, 2, and 4 μL of 3a and 2, 4, and 8 μL of 3b from the stock solution of 10 mg/mL were spotted on the disk. […] The diameter of zone of inhibition (ZOI) was recorded in millimetres after 48 h and was compared with that of control. This experiment was repeated thrice and values were shown in terms of mean ±standard error of mean.

[3] = tested on: proteinase secretion; assay: Proteinase assay (BSA agar, Pz value); format: cell-based, C. albicans ATCC 90028; conditions: at MIC, 1 h exposure
Method: (§1) Following incubation, 1.5 mL of the yeast culture was taken into micro centrifuge tubes and centrifuged at 3000 rpm, for 5 min. The pellet obtained was washed by phosphate buffer saline (PBS) twice to remove the residual medium. […] Volumes of 1μL were placed at equidistant points on proteinase agar medium (0.1% yeast nitrogen base w/o amino acids; 0.145% ammonium sulfate; 2% glucose with 0.2% (w/v) BSA fraction V mixed into agar at ∼40°C) and incubated at 37°C for 3 days. The experiment was performed in duplicate. Secreted proteinase enzyme will degrade BSA and form zone of clearance around the yeast colonies. An index (Pz value) was used to represent the extent of proteinase activity by different strains of C. albicans. A Pz value of 1.0 depicts no enzyme activity. It was calculated as follows: Pzvalue=diameterofcolony/diameterofcolony+diameterofzoneofdegradation

[4] = tested on: proteinase secretion; assay: Proteinase assay (BSA agar, Pz value); format: cell-based, C. albicans D27 (FLC-susceptible); conditions: at MIC, 1 h exposure
Method: as §1

[5] = tested on: phospholipase secretion; assay: Phospholipase assay (egg yolk agar, Pz value); format: cell-based, C. albicans D15.9 (FLC-resistant)
Method: Phospholipase activity was performed using the method of Price et al. (1982) with minor modifications. The cells were incubated at 37°C for 18 h and then centrifuged at 3000 rpm for 5 min. The pellet obtained was washed with PBS twice to remove the residual culture medium. […] Volumes of 1 μL were placed at equidistant points on phospholipase agar media plates (1% peptone; 3% glucose; 5.73% NaCl; 0.055% CaCl2 with 10% (v/v) egg yolk emulsion) and incubated at 37°C for 4 days. The secretion of phospholipases was determined by the formation of opaque zones due to precipitation around the yeast colonies. The assay was conducted in duplicate. Pz values were calculated as follows: Pzvalue=diameterofcolony/diameterofcolony+diameterofzoneofprecipitaion

[6] = target: T1, plasma membrane H+ ATPase (Candida albicans, UniProt P28877); assay: Proton extrusion measurement (H+ efflux); format: cell-based, C. albicans ATCC 90028
T1 construct: endogenous in cells; host or cells: C. albicans ATCC 90028; clinical isolates C. albicans D27 (FLC-susceptible) and D15.9 (FLC-resistant); mid-log phase whole cells
T1 sequence (P28877 whole entry): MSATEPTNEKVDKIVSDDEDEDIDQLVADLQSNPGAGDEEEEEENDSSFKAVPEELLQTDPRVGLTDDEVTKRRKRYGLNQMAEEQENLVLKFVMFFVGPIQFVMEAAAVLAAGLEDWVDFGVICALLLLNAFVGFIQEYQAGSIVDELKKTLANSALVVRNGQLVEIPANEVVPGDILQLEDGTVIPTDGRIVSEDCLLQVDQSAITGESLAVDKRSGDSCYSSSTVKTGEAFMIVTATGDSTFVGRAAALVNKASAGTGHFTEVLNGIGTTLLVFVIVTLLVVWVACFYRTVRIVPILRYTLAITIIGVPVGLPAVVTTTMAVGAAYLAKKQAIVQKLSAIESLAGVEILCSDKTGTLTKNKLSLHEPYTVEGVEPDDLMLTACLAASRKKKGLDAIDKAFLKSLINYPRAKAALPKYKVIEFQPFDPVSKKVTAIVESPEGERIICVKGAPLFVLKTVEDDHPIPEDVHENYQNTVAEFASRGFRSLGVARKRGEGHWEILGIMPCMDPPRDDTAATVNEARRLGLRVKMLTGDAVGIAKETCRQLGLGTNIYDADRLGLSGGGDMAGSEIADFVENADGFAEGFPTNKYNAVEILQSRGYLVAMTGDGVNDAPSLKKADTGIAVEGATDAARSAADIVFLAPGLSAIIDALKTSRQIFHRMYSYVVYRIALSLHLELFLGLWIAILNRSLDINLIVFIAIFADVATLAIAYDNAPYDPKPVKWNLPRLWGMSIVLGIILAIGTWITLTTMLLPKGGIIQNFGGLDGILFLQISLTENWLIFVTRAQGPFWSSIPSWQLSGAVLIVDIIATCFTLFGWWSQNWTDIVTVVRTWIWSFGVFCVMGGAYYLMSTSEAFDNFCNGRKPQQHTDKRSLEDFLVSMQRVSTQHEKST
Method: The proton pumping activity of C. albicans was determined by monitoring acidification of external medium by measuring pH as describe earlier. In brief, the mid-log phase cells were harvested from SD medium by centrifugation at 3000 rpm for 15 min which is followed by three washings with phosphate buffer saline (PBS). A solution containing 0.1 M KCl and 0.1 mM CaCl2 in distilled water was prepared. Compounds 3a and 3b at the concentrations of 50 and 100 μg/mL were separately added in this solution. […] Initial pH was adjusted to 7.0 using 0.01 M HCl/NaOH. Approximately 0.2 g of cells were suspended in each set of solution. Suspension was kept in a double-jacketed glass container with constant stirring. Again, the pH of suspension was maintained as 7.0 for 1 min by using 0.01 N NaOH. The rate of H^+ extrusion was then monitored and calculated from the volume of 0.01 N NaOH consumed per min per mg weight of cells. Glucose has been reported as the stimulator of proton extrusion pump. Therefore above experiment was also repeated in the presence of 5 mM of glucose.

[7] = Hemolytic assay; format: cell-based; conditions: human, human red blood cells (erythrocyte suspension), 37°C, read-out: Hemolysis of hRBCs
Method: Human blood from a healthy individual was collected in tubes containing EDTA as anti-coagulant. The erythrocytes were harvested by centrifugation for 10 min at 2000 rpm and 20°C, washed three times in PBS. To the pellet, PBS was added to yield a 10% (v/v) erythrocytes/PBS suspension. The 10% suspension was then diluted 1:10 in PBS. From each suspension, 100 μL was added in triplicate to 100 μL of a different dilution series of test compounds in the same buffer in micro centrifuge tubes. […] The tubes were incubated for 1 h at 37°C and then centrifuged for 10 min at 2000 rpm and 20°C. From the supernatant, 150 μL was transferred to a flat-bottomed microtiter plate (Tarson), and the absorbance was measured spectrophotometrically at 450 nm. The hemolysis percentage was calculated by following equation: %Hemolysis=[(A450oftestcompoundtreatedsample−A450ofbuffertreatedsample)÷(A450of1%TritonX−100treatedsample−A450ofbuffertreatedsample)]×100

[8] = tested on: ergosterol biosynthesis; assay: Ergosterol estimation assay
[9] = Candida albicans, 40 μg per disk
[10] = 50 μg/mL in presence of glucose (5 mM)
[11] = 100 μg/mL in presence of glucose (5 mM)
[12] = 100 μg/mL, no glucose, read-out: Inhibition of H+ extrusion
[13] = in the presence of glucose (5 mM), 100 μg/mL, read-out: Inhibition of H+ extrusion rate

SMILES | MIC [1] | IC50 [1] | zone of inhibition at 40 µg/disc [2, 9] | Decrease of proteinase secretion [3] | Decrease of proteinase secretion [4] | Decrease of phospholipase secretion ([5]; at MIC, 1 h exposure) | Decrease of phospholipase secretion ([5]; at MIC/4, 1 h exposure) | Range of relative H+ efflux rate [6, 10] | Range of relative H+ efflux rate ([6]; 50 μg/mL, no glucose) | Range of relative H+ efflux rate [6, 11] | Range of relative H+ efflux rate ([6]; 100 μg/mL, no glucose) | inhibition at 100 µg/mL [6, 12] | inhibition at 100 µg/mL [6, 13] | hemolysis at 1 h, 500 μg/mL [7] | Mean decrease in total ergosterol content ([8]; above MIC/2, 16 h) | Mean decrease in total ergosterol content ([8]; at MIC/4, 16 h) | also measured
c1ccc(Cn2cc(COc3cccc4cccnc34)nn2)cc1 [Compound 3a] | 25 µg/mL (≈ 79 µM) | 2.3 ± 0.05 µg/mL (≈ 7.27 µM) | 26 mm | 21% | 30% | 34% | 25% | 33.40 ± 1.6 ×10^−6 mol min^−1 mg cells^−1 | 19.60 ± 0.9 ×10^−6 mol min^−1 mg cells^−1 | 26.60 ± 1.3 ×10^−6 mol min^−1 mg cells^−1 | 11.00 ± 0.5 ×10^−6 mol min^−1 mg cells^−1 | 70% | 52% | 4.76% | 100% | 48% | Zone of Inhibition ([2]; 40 μg per disk): 26± 0.92 mm; zone of inhibition at 20 µg/disc ([2]; Candida albicans): 19 ± 0.95 mm; zone of inhibition at 10 µg/disc ([2]; Candida albicans, 10 μg per disk): 14 ± 0.7 mm
Clc1ccc(OCc2cn(Cc3ccccc3)nn2)c2ncccc12 [Compound 3b, 8-((1-Benzyl-1H-1,2,3-triazol-4-yl)methoxy)-5-chloroquinoline] | 250 µg/mL (≈ 713 µM) | 32.8 ± 1.25 µg/mL (≈ 93.5 µM) | 18 ± 0.87 mm | 14% | 22% | 30% | 25% | 23.30 ± 1.1 ×10^−6 mol min^−1 mg cells^−1 | 23.40 ± 1.1 ×10^−6 mol min^−1 mg cells^−1 | 20.00 ± 1.0 ×10^−6 mol min^−1 mg cells^−1 | 19.30 ± 0.9 ×10^−6 mol min^−1 mg cells^−1 | 47% | 64% | 26.8% | 100% | 33% | Zone of Inhibition ([2]; 80 μg per disk): 26± 1.17 mm; zone of inhibition at 20 µg/disc ([2]; Candida albicans, 20 μg per disk, read-out: Zone of Inhibition): 16 ± 0.54 mm; zone of inhibition at 80 µg/disc ([2]; Candida albicans, 80 μg per disk): 26 mm
